Data reported in patent US20110104159A1, “COMPOSITIONS AND METHODS FOR TREATING, CONTROLLING, REDUCING, AMELIORATING, OR PREVENTING ALLERGY” (priority 2006, published 2011).
Where “and” joins values, the source holds several entries; their conditions need not be identical. Equal values may be shown once.

Tests used:
CXCR4 receptor = CXCR4 receptor surface expression in human eosinophils (FACS), transactivation marker; format: cell-based; conditions: 24 h
Method: (§1) FACS was performed to measure cell surface expression of annexin I and CXCR4 as indicators of glucocorticoid-mediated transactivation. Human eosinophils were double-stained with a red dye-conjugated secondary antibody to trace changes in the expression of CXCR4 or I, and a green dye-conjugated annexin V to exclude apoptotic cells from the analysis. The cells were counted and transferred to a 24-well plate (10^6 cells/well) and serum-starved (0.1% FBS) for 24 h.
(§2) At the end of the incubation, the cells were harvested and each sample was divided into two tubes to run parallel tests for annexin I and CXCR4 surface expression. After rinsing all samples with a HBSS solution containing 1% BSA, the cells were incubated for 45 min on a shaker with anti-annexin I or anti-CXCR4 antibodies (1:200) on ice; the negative control was incubated with an isotype-specific control antibody.
(§3) The cells were then washed twice with HBSS/BSA buffer before exposure to the Alexa Fluor® 568-conjugated secondary antibody. The excess of unbound antibody was washed away, and all samples were incubated for 15 min in the presence of annexin V-Fluos. […] Electronic gates were set on annexin V-negative cells and CXCR4 or annexin I-positive cells. Data from 10,000 cells/sample were analyzed using dedicated software (Becton, Dickinson and Company). The % of CXCR4 or annexin I positive cells was calculated.

PGE2 = assay: Prostaglandin E2 (PGE2) measurement in aqueous humor; format: in vivo, Rabbit; conditions: for PGE2 in aqueous humor at the second paracentesis, Mean: group mean; for PGE2 in aqueous humor at the second paracentesis: individual eye sample, listed as BOL; for PGE2 in aqueous humor, statistical comparison with CTR: p<0.05
Method: Each rabbit was placed in a restraint device and tagged with the alphanumeric code. The formulations were instilled (50 μl) into the conjunctival sac of both eyes 180, 120, 90 and 30 min before the first paracentesis; then 15, 30, 90 min after the first paracentesis. To perform the first paracentesis the animals were anaesthetized by intravenous injection of 5 mg/kg Zoletil® (Virbac; 2.5 mg/kg tiletamine HCl and 2.5 mg/kg zolazepam HCl) and one drop of local anesthetic (Novesina®, Novartis) was administered to the eye. Anterior chamber paracentesis was performed with a 26 G needle attached to a tuberculin syringe; the needle was introduced into the anterior chamber through the cornea, taking care not to damage the tissues. Two hours after the first paracentesis, the animals were sacrificed with 0.4 ml Tanax® (Intervet International B.V.) and the second paracentesis was performed. About 100 μl of aqueous humor were removed at the second paracentesis. Aqueous humor was immediately split in four aliquots and stored at −80° C. until analysis. Then both eyes were enucleated and the iris-ciliary body was carefully excised, placed in polypropylene tubes, and stored at −80° C. until analysis.
For the quantitative determination of PGE2 in the aqueous humor we used the PGE2 Immunoassay kit (R&D Systems; Cat. No. KGE004; Lot. No. 240010). Eleven microliters or 16 μl of aqueous humor were diluted to 110 μl or 160 μl with the calibrator diluent solution provided with the kit. One hundred microliters of samples and of standards were load into a 96-well plate and recorded in a plate layout. Samples were treated following the assay procedure described in the kit. A microplate reader (GDV, Italy; model DV 990 B/V6) set at 450 nm (wavelength correction at 540 nm) was used for making the calibration and analyzing the samples.

annexin I = assay: Annexin I surface expression in human eosinophils (FACS), transactivation marker; format: cell-based; conditions: 10 000 nM
Method: as §1, §2, §3

EoL-1 cells = assay: EoL-1 cell apoptosis (annexin V/PI flow cytometry); format: cell-based, human
Method: EoL-1 cells were grown in RPMI-1640+L-glutamine medium (containing 10% FBS) and kept at 37° C. in a 5% CO2 humidified atmosphere. Before each experiment, the cells were stabilized in serum-depleted media (0.1% FBS) for 24 h before treatments.

caspase-3 = assay: Caspase-3 activation in human eosinophils (Western blotting); format: cell-based; conditions: 24 h, 0.1% FBS; BOL-303242-X 1-1000 nM, dexamethasone 1000 nM
Method: Human eosinophils were pelleted and resuspended in 100 μl of CER I buffer (NE-PER™ Extraction reagent; Pierce). After 10 min incubation on ice, 5.5 μl of CER II buffer was added and the suspension was resuspended by vortexing, incubated on ice for 1 min and resuspended. The cytoplasmic fraction was separated by centrifugation at 16,000 g for 5 min. The protein content was quantified using a BCA protein assay (Pierce). The proteins of the cytoplasmic extract (50 μg) were denatured at 95° C. for 3 min, then loaded and separated by 15% sodium dodecyl sulfate-polyacrylamide gel electrophoresis (SDS-PAGE). We used MagicMark™ XP Western Standard as a molecular weight standard.
Proteins were transferred to Protran™ nitrocellulose membranes, which were blocked with 5% non-fat milk in TBS (10 mM Tris-HCl, pH 8, containing 150 mM NaCl) plus 0.1% Tween 20 for 1 h at room temperature (25° C.). The blots were probed overnight at 4° C. in TBS containing 0.1% Tween 20, 5% non-fat milk and antibodies with dilutions of 1:1000 for caspase-3 monoclonal antibody or 1:5000 for β-actin antibody (used as a loading control for cytoplasmic cell lysates). The former detects endogenous levels of procaspase-3 (around 32 kDa; p32) and its large subunit cleavage product of approximately 17 kDa (p17). The membranes were incubated with peroxidase-conjugated secondary antibodies at a dilution of 1:8000. […]

Q: Which results are given for `Cc1ccc2c(NC[C@](O)(CC(C)(C)c3cc(F)cc4c3OCC4)C(F)(F)F)cccc2n1` [BOL-303242-X, (R)-1,1,1-Trifluoro-4-(5-fluoro-2,3-dihydrobenzofuran-7-yl)-4-methyl-2-{[(2-methyl-5-quinolyl)amino]methyl}pentan-2-ol]?
A: CXCR4 receptor surface expression (CXCR4 receptor; 10 000 nM, significantly lower than 1000 nM dexamethasone): partially increased this receptor on the cell surface; CXCR4 receptor surface expression (CXCR4 receptor; up to 5000 nM, vs vehicle-treated or control eosinophils): did not change CXCR4 receptor expression; PGE2 in aqueous humor at the second paracentesis, Mean (PGE2; 0.1% topical): 1.452 ng/mL; PGE2 in aqueous humor at the second paracentesis (PGE2; 0.1% topical): 1.62 ng/mL and 1.88 ng/mL and 2.15 ng/mL and 0.70 ng/mL and 1.34 ng/mL and 1.03 ng/mL; PGE2 in aqueous humor, statistical comparison with CTR (PGE2; 0.1% topical): statistically significant versus CTR; PGE2 in aqueous humor at the second paracentesis, Mean (PGE2; 0.5% topical): 1.384 ng/mL; PGE2 in aqueous humor at the second paracentesis (PGE2; 0.5% topical): 2.31 ng/mL and 2.59 ng/mL and 0.53 ng/mL and 0.75 ng/mL and 0.80 ng/mL and 1.62 ng/mL and 1.09 ng/mL; PGE2 in aqueous humor, statistical comparison with CTR (PGE2; 0.5% topical): statistically significant versus CTR; PGE2 in aqueous humor at the second paracentesis, Mean (PGE2; 1% topical): 2.168 ng/mL; PGE2 in aqueous humor at the second paracentesis (PGE2; 1% topical): 0.50 ng/mL and 1.87 ng/mL and 1.71 ng/mL and 4.04 ng/mL and 1.11 ng/mL and 3.78 ng/mL; Induction of annexin I expression on the eosinophil cell surface (annexin I): partially effective only at the highest concentration; Efficacy, enhancement of spontaneous EoL-1 cell apoptosis (EoL-1 cells; 0.1% FBS 96 h, compound during the last 72 h): 61%; Percentage of annexin-V+/PI+ (necrotic) EoL-1 cells (EoL-1 cells; 72 h, 5000 nM, n=12, p>0.05 vs without compound (12±5%)): 7±4%; EC50 (EoL-1 cells; Homo sapiens, EOL1, 0.1% FBS 96 h, compound during the last 72 h, read-out: EC50, enhancement of spontaneous EoL-1 cell apoptosis): 315 nM; Caspase-3 p17 subunit level (Western blot) (caspase-3): marked, concentration-dependent increase of the p17 subunit
